We go through eleven compounds from ChEMBL document CHEMBL1201862, “PubChem BioAssay data set” (2004).

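Method: 48-hour compound exposure of cells in 96-well plates, five concentrations, linear interpolation of endpoints. GI50 marks 50% less growth.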 Active and inactive are the calls of the source. Rule as the data show it: active = GI50 up to about 1.1 µM and inactive = higher. Some results are limits rather than exact numbers.

What all share (assay): inhibition of tumour cell growth, NCI panel, 48 h
The test system of assay [1] is MCF7.
Assay [2] has as its system ACHN.
In assay [3] the test system is TK-10.
Assay [4] deals with HT-29.
The test system of assay [5] is Malme-3M.
The subject of assay [6] is Hs-578T.
Assay [7] has as its system MDA-MB-435.
The test system of assay [8] is T47D.
For assay [9], the system named is DU-145.
Assay [10] deals with UACC-62.
For assay [11], the system named is OVCAR-8.
Assay [12] concerns SNB-19.
The subject of assay [13] is CAKI-1.
Assay [14] relates to HCT-15.
In assay [15] the test system is OVCAR-3.
Assay [16] has as its system KM12.
In assay [17] the test system is M14.
In assay [18] the test system is NCI-H460.
Assay [19] has as its system SR.

As for `Cc1ccc(N)cc1.O=S(=O)(O)/C(=C\c1ccccc1)c1ccccc1`, the GI50 in [1], in [2], in assay [3], in [4], in [5] and in assay [6] was > 100 µM (inactive) in each case. Besides, the GI50 is > 100 µM (inactive) in [7]; > 100 µM (inactive) in assay [8]; > 100 µM (inactive) in assay [9]; 44 µM (inactive) in assay [10]; > 100 µM (inactive) in assay [11]; > 100 µM (inactive) in [12]. Further, the GI50 in [13] was > 100 µM (inactive); in assay [14] it was above 100 µM; in assay [15], > 100 µM (inactive); in assay [16], 71.8 µM (inactive); in assay [17] it was > 100 µM (inactive); in [18] it was > 100 µM (inactive). Besides, in assay [19], the GI50 was > 100 µM (inactive).

`Cc1ccc(C(=N)c2ccccc2Cc2cccc3ccccc23)c2ccccc12`: the GI50 in [1] is 42.6 µM (inactive); in [2] it was > 100 µM (inactive); in [3], > 100 µM (inactive); in assay [4], 11.7 µM (inactive); in assay [5] it was > 100 µM (inactive); in [6] it was > 100 µM (inactive). The GI50 in [7] was > 100 µM (inactive); in assay [8], 65.3 µM (inactive); in assay [9], > 100 µM (inactive); in [10], 99.1 µM (inactive); in assay [11], > 100 µM (inactive); in assay [12], > 100 µM (inactive). Moreover, the GI50 was > 100 µM (inactive) in assay [13]; 40.6 µM in [14]; 79.1 µM (inactive) in assay [15]; > 100 µM (inactive) in assay [16]; 32.3 µM (inactive) in [17]; 41.5 µM (inactive) in [18]. The GI50 in [19] was 41.6 µM (inactive).

As for `CN(C)CCCNC(=O)N/N=C/c1ccc([N+](=O)[O-])cc1`, the GI50 was 53.1 µM (inactive) in [1]; > 100 µM (inactive) in [2]; > 100 µM (inactive) in [3]; > 100 µM (inactive) in assay [4]; 40.2 µM (inactive) in [5]; 46.7 µM (inactive) in assay [6]. Further, the GI50 in assay [7] was > 100 µM (inactive); in assay [8] it was 86.1 µM (inactive); in assay [9], > 100 µM (inactive); in [10], > 100 µM (inactive); in assay [11] it was > 100 µM (inactive); in assay [12], > 100 µM (inactive). The GI50 in assay [13] is > 100 µM (inactive); in assay [14], above 100 µM; in [15] it was > 100 µM (inactive); in assay [16] it was 95.3 µM (inactive); in assay [17], > 100 µM (inactive); in [18] it was > 100 µM (inactive). Also, the GI50 in assay [19] is > 100 µM (inactive).

On to `O=C(Cc1ccccc1)NNc1nc(NNC(=O)c2ccncc2)nc(Nc2ccc([N+](=O)[O-])cc2)n1`, for which the GI50 in assay [1], in assay [2], in [3], in [4], in assay [5] and in [6] was > 10 µM (inactive) each time. Further, the GI50 in [7] is > 10 µM (inactive); in assay [8] it was > 10 µM (inactive); in assay [9], > 10 µM (inactive); in [10] it was 9.38 µM (inactive); in assay [11], > 10 µM (inactive); in [12] it was 6.56 µM (inactive). Moreover, the GI50 in [13] was > 10 µM (inactive); in [14], 6.22 µM; in assay [15] it was > 10 µM (inactive); in assay [16], > 10 µM (inactive); in assay [17] it was > 10 µM (inactive); in assay [18] it was > 10 µM (inactive). The GI50 in assay [19] is > 10 µM (inactive).

As for `O=C1C(Cl)=C(Cl)C(=O)C(CCNc2nccs2)=C1Cl`, the GI50 in [1] is 33 µM (inactive); in assay [2] it was 27.4 µM (inactive); in assay [3], 29.2 µM (inactive); in assay [4], 35.2 µM (inactive); in assay [5], 20.4 µM (inactive); in [6] it was 33.5 µM (inactive). The GI50 is 21.4 µM (inactive) in assay [7]; 43.5 µM (inactive) in [8]; 58.7 µM (inactive) in assay [9]; 20.7 µM (inactive) in [10]; 29.5 µM (inactive) in [11]; > 100 µM (inactive) in assay [12]. In addition, the GI50 in assay [13] is 19.3 µM (inactive); in [14], 20.4 µM; in assay [15] it was 25.8 µM (inactive); in [16] it was 32.7 µM (inactive); in assay [17] it was 20.2 µM (inactive); in assay [18] it was > 100 µM (inactive). In addition, the GI50 in [19] was 47.2 µM (inactive).

For `CSc1nc(C)c2c(n1)N(c1ccc(Cl)cc1)CC2`, the GI50 in assay [1], in assay [2], in assay [3], in assay [4], in [5] and in [6] was > 100 µM (inactive) each time. Further, the GI50 in assay [7], in [8], in assay [9], in [10], in assay [11] and in assay [12] was > 100 µM (inactive) throughout. Also, the GI50 in assay [13] is > 100 µM (inactive); in assay [14], above 100 µM; in assay [15], > 100 µM (inactive); in [16], > 100 µM (inactive); in assay [17] it was > 100 µM (inactive); in assay [18], > 100 µM (inactive). Moreover, the GI50 in [19] was > 100 µM (inactive).

Regarding `Oc1ccc(C(O)(c2ccccc2)c2ccccc2)c2ccccc12`, the GI50 in [1] was 4.15 µM (inactive); in [2], 1.77 µM (inactive); in [3], 2.59 µM (inactive); in assay [4], 2.77 µM (inactive); in assay [5], 10.2 µM (inactive); in [6], 3.88 µM (inactive). The GI50 is 1.07 µM (active) in assay [7]; 2.77 µM (inactive) in assay [8]; 2.13 µM (inactive) in assay [9]; 1.22 µM (inactive) in assay [10]; 2.42 µM (inactive) in [11]; 5.15 µM (inactive) in [12]. Besides, the GI50 in [13] is 1.82 µM (inactive); in [14], 1.22 µM; in assay [15], 1.42 µM (inactive); in assay [16] it was 2.07 µM (inactive); in [17] it was 2.34 µM (inactive); in assay [18] it was 2.72 µM (inactive). The GI50 in assay [19] is 2.5 µM (inactive).

Consider `COc1ccc(OC)c(CSc2ccc(OC)c(OC)c2)c1`, for which the GI50 in assay [1] is > 100 µM (inactive); in assay [2], > 100 µM (inactive); in [3] it was > 100 µM (inactive); in assay [4], > 73.3 µM (inactive); in assay [5] it was > 100 µM (inactive); in assay [6], > 100 µM (inactive). The GI50 in assay [7] was > 79.4 µM (inactive); in [8] it was 10.6 µM (inactive); in assay [9], > 100 µM (inactive); in assay [10], > 68.5 µM (inactive); in assay [11], > 95.3 µM (inactive); in [12], > 100 µM (inactive). For the same compound, the GI50 in assay [13] was > 100 µM (inactive); in [14] it was above 73.8 µM; in [15], > 63.5 µM (inactive); in assay [16], > 100 µM (inactive); in assay [17], > 100 µM (inactive); in assay [18], > 100 µM (inactive). Further, the GI50 in assay [19] was > 100 µM (inactive).

Turning to `COc1ccc2cc(/C=N\NC(=O)Nc3ccc([N+](=O)[O-])cc3)ccc2c1`, the GI50 was 14.4 µM (inactive) in assay [1]; 13.9 µM (inactive) in assay [2]; 7.96 µM (inactive) in assay [3]; 11.5 µM (inactive) in assay [4]; 12.3 µM (inactive) in [5]; 17.5 µM (inactive) in [6]. Also, the GI50 in assay [7] was 14.1 µM (inactive); in [8], 14.2 µM (inactive); in assay [9], 7.41 µM (inactive); in assay [10] it was 13.8 µM (inactive); in assay [11], 11.7 µM (inactive); in [12] it was 13.2 µM (inactive). Besides, the GI50 in assay [13] was 13.5 µM (inactive); in assay [14], 15.1 µM; in [15], 18.4 µM (inactive); in assay [16], 11.3 µM (inactive); in [17], 22.6 µM (inactive); in assay [18] it was 12.4 µM (inactive). The GI50 in [19] is > 10 µM (inactive).

On to `COC(=O)NC(Nc1ccc(Cl)cc1Cl)(C(F)(F)F)C(F)(F)F`, for which the GI50 in assay [1] is > 100 µM (inactive); in assay [2], 10.5 µM (inactive); in assay [3] it was 92.7 µM (inactive); in assay [4], > 100 µM (inactive); in assay [5], > 100 µM (inactive); in [6] it was > 100 µM (inactive). The GI50 in [7] is 25.1 µM (inactive); in assay [8], 47 µM (inactive); in assay [9], 35.3 µM (inactive); in assay [10] it was 5.2 µM (inactive); in assay [11], 70.8 µM (inactive); in assay [12], > 100 µM (inactive). Further, the GI50 is 24.5 µM (inactive) in [13]; 4.38 µM in assay [14]; 79.6 µM (inactive) in assay [15]; 14 µM (inactive) in assay [16]; 52.4 µM (inactive) in [17]; 30 µM (inactive) in assay [18]. The GI50 in assay [19] was 5.31 µM (inactive).

For `O=C1NC(=O)C2(CCC(O)C2)c2cc[n+]([O-])cc21` (centres undefined), the GI50 in assay [1], in assay [2], in assay [3], in [4], in assay [5] and in [6] was > 100 µM (inactive) in each case. In addition, the GI50 in [7], in assay [8], in assay [9], in [10], in assay [11] and in [12] was > 100 µM (inactive) in each case. For the same compound, the GI50 was > 100 µM (inactive) in [13]; above 100 µM in [14]; > 100 µM (inactive) in assay [15]; > 100 µM (inactive) in assay [16]; > 100 µM (inactive) in assay [17]; > 100 µM (inactive) in [18]. For the same compound, in assay [19], the GI50 is > 100 µM (inactive).
